Data taken from publication PMC12396409, “Screening and hit evaluation of a microbial metabolite library against the pathogenic Plasmodium falciparum and Toxoplasma gondii parasites” (International Journal for Parasitology: Drugs and Drug …, 2025).
Read-outs that look alike come from different tables or passages of the source.

Columns and labels:
[1] = system: T. gondii RH strain (RH-Tub-eYFP) tachyzoites; test: microbe, parasite or virus in culture; assay type: cell-based, Toxoplasma gondii
[2] = system: P. falciparum 3D7 parasites; test: P. falciparum growth inhibition assay, 2-cycle (120 h treatment), delayed-death screen and dose-response; assay type: cell-based, Plasmodium falciparum
[3] = system: P. falciparum 3D7 parasites; test: P. falciparum growth inhibition assay, 1-cycle (72 h treatment), SYBR DNA staining (library screen at 2 μg/mL and dose-response); assay type: cell-based, Plasmodium falciparum
[4] = library screen at 2 μg/mL, 72 h, % growth, replicate 1
[5] = library screen at 2 μg/mL, 72 h, % growth, replicate 2
[6] = library screen at 2 μg/mL, 120 h, % growth, replicate 1
[7] = library screen at 2 μg/mL, 120 h, % growth, replicate 2
[8] = T. gondii, 72 h, parasite screen 2 μg/mL, % growth, replicate 1
[9] = T. gondii, 72 h, parasite screen 2 μg/mL, % growth, replicate 2
[10] = P. falciparum, 120 h, parasite screen 2 μg/mL, % growth, replicate 1
[11] = P. falciparum, 120 h, parasite screen 2 μg/mL, % growth, replicate 2
[12] = P. falciparum, 72 h, parasite screen 2 μg/mL, % growth, replicate 1
[13] = P. falciparum, 72 h, parasite screen 2 μg/mL, % growth, replicate 2

COc1ccc(-c2coc3cc(O)cc(O)c3c2=O)cc1 [Biochanin A]
Tg_72h_%Growth_Rep1 [1, 4]: 75.87% | Tg_72h_%Growth_Rep2 [1, 5]: 92.06% | Pf_120h_%Growth_Rep1 [2, 6]: 158.83% | Pf_120h_%Growth_Rep2 [2, 7]: 100.13% | Pf_72h_%Growth_Rep1 [3, 4]: 105.15% | Pf_72h_%Growth_Rep2 [3, 5]: 90.67%

C[C@@H]1CCC[C@H](O)CCC/C=C/c2cc(O)cc(O)c2C(=O)O1 [Zearalenol, beta-]
Tg_72h_%Growth_Rep1 ([1]; T. gondii, 72 h, screen at 2 μg/mL, replicate 1): 134.26% | Tg_72h_%Growth_Rep2 ([1]; T. gondii, 72 h, screen at 2 μg/mL, replicate 2): 80.69% | Pf_120h_%Growth_Rep1 ([2]; P. falciparum, 120 h, screen at 2 μg/mL, replicate 1): 110.27% | Pf_120h_%Growth_Rep2 ([2]; P. falciparum, 120 h, screen at 2 μg/mL, replicate 2): 105.90% | Pf_72h_%Growth_Rep1 ([3]; P. falciparum, 72 h, screen at 2 μg/mL, replicate 1): 92.46% | Pf_72h_%Growth_Rep2 ([3]; P. falciparum, 72 h, screen at 2 μg/mL, replicate 2): 126.46%

COCCC[C@H]1O[C@@](O)([C@H](C)C2CC(OC)C(O)/C=C(C)/C=C(C)/C=C(/C)C(O[C@H]3O[C@H](C)[C@@H](OC)[C@H](O)[C@H]3O)C(C)/C=C(C)/C=C(OC)\C=C(/C)C(=O)O2)[C@H](OC)[C@@H](O)[C@]1(C)O[C@H]1C[C@H](O)[C@H](O[C@H]2C[C@@](C)(O)[C@H](O)[C@@H](C)O2)[C@@H](C)O1 (stereo partly drawn) [Amycolatopsin B]
Tg_72h_%Growth_Rep1 [1, 4]: 0.29% | Tg_72h_%Growth_Rep2 [1, 5]: 0.85% | Pf_120h_%Growth_Rep1 [2, 6]: 16.58% | Pf_120h_%Growth_Rep2 [2, 7]: 9.62% | Pf_72h_%Growth_Rep1 [3, 4]: 44.61% | Pf_72h_%Growth_Rep2 [3, 5]: 41.71%

CO[C@@H]1[C@H](N(C)C(=O)c2ccccc2)C[C@H]2O[C@]1(C)n1c3ccccc3c3c4c(c5c6ccccc6n2c5c31)C(=O)NC4=O [Stauprimide]
Tg_72h_%Growth_Rep1 [1, 8]: 9.90% | Tg_72h_%Growth_Rep2 [1, 9]: 20.75% | Pf_120h_%Growth_Rep1 [2, 10]: 32.82% | Pf_120h_%Growth_Rep2 [2, 11]: 11.28% | Pf_72h_%Growth_Rep1 [3, 12]: 1.11% | Pf_72h_%Growth_Rep2 [3, 13]: -9.03%

Diacetoxyscirpenol
Tg_72h_%Growth_Rep1 [1]: -1.25% | Tg_72h_%Growth_Rep2 [1]: -0.43% | Pf_120h_%Growth_Rep1 [2]: 13.51% | Pf_120h_%Growth_Rep2 [2]: -0.91% | Pf_72h_%Growth_Rep1 [3]: 9.42% | Pf_72h_%Growth_Rep2 [3]: -2.86%

CO[C@H]1C[C@H](O[C@H]2[C@H](C)O[C@@H](O[C@@H]3/C(C)=C/C[C@@H]4C[C@@H](C[C@]5(C=C[C@H](C)[C@@H](C6CCCCC6)O5)O4)OC(=O)[C@@H]4C=C(C)[C@@H](O)[C@H]5OC/C(=C\C=C\[C@@H]3C)[C@]54O)C[C@@H]2OC)O[C@@H](C)[C@@H]1O [Doramectin]
Tg_72h_%Growth_Rep1 [1, 4]: 127.97% | Tg_72h_%Growth_Rep2 [1, 5]: 102.84% | Pf_120h_%Growth_Rep1 [2, 6]: 100.88% | Pf_120h_%Growth_Rep2 [2, 7]: 96.33% | Pf_72h_%Growth_Rep1 [3, 4]: 86.87% | Pf_72h_%Growth_Rep2 [3, 5]: 79.49%

CC(=O)O[C@H]1C[C@]2(C)[C@H]3CC[C@]4(C)Oc5oc(C)cc(=O)c5C[C@H]4[C@]3(C)CC[C@H]2C(C)(C)[C@H]1OC(C)=O [Sartorypyrone B]
Tg_72h_%Growth_Rep1 [1, 8]: 114.72% | Tg_72h_%Growth_Rep2 [1, 9]: 87.54% | Pf_120h_%Growth_Rep1 [2, 10]: 68.83% | Pf_120h_%Growth_Rep2 [2, 11]: 125.68% | Pf_72h_%Growth_Rep1 [3, 12]: 77.80% | Pf_72h_%Growth_Rep2 [3, 13]: 111.47%

COc1cc2c(oc(=O)c3cc(C)cc(OC)c32)c2c([C@H]3O[C@@H]([C@@H](C)O)[C@H](O)[C@H]3O)ccc(O)c12 [BIA-G1034]
Tg_72h_%Growth_Rep1 ([1]; T. gondii RH, 72 h, library screen at 2 μg/mL, % growth, replicate 1): 123.33% | Tg_72h_%Growth_Rep2 ([1]; T. gondii RH, 72 h, library screen at 2 μg/mL, % growth, replicate 2): 101.31% | Pf_120h_%Growth_Rep1 ([2]; P. falciparum 3D7, 120 h, library screen at 2 μg/mL, % growth, replicate 1): 90.16% | Pf_120h_%Growth_Rep2 ([2]; P. falciparum 3D7, 120 h, library screen at 2 μg/mL, % growth, replicate 2): 122.56% | Pf_72h_%Growth_Rep1 ([3]; P. falciparum 3D7, 72 h, library screen at 2 μg/mL, % growth, replicate 1): 90.69% | Pf_72h_%Growth_Rep2 ([3]; P. falciparum 3D7, 72 h, library screen at 2 μg/mL, % growth, replicate 2): 120.87%

CC(C)Cc1cnc(C(O)C(C)C)c(=O)n1O (stereo not drawn) [BIA-N1641]
Tg_72h_%Growth_Rep1 ([1]; T. gondii, 72 h, parasite screen at 2 μg/mL, % growth, replicate 1): 143.25% | Tg_72h_%Growth_Rep2 ([1]; T. gondii, 72 h, parasite screen at 2 μg/mL, % growth, replicate 2): 85.15% | Pf_120h_%Growth_Rep1 ([2]; P. falciparum 3D7, 120 h, parasite screen at 2 μg/mL, % growth, replicate 1): 89.64% | Pf_120h_%Growth_Rep2 ([2]; P. falciparum 3D7, 120 h, parasite screen at 2 μg/mL, % growth, replicate 2): 132.16% | Pf_72h_%Growth_Rep1 ([3]; P. falciparum 3D7, 72 h, parasite screen at 2 μg/mL, % growth, replicate 1): 83.86% | Pf_72h_%Growth_Rep2 ([3]; P. falciparum 3D7, 72 h, parasite screen at 2 μg/mL, % growth, replicate 2): 85.70%

CC[C@H](C)[C@H]1O[C@]2(C=C[C@@H]1C)C[C@@H]1C[C@@H](C/C=C(\C)[C@@H](O[C@H]3C[C@H](OC)[C@@H](O)[C@H](C)O3)[C@@H](C)/C=C/C=C3\CO[C@@H]4[C@H](O)C(C)=C[C@@H](C(=O)O1)[C@]34O)O2 [Avermectin B1a monosaccharide]
Tg_72h_%Growth_Rep1 [1, 4]: 153.46% | Tg_72h_%Growth_Rep2 [1, 5]: 93.98% | Pf_120h_%Growth_Rep1 [2, 6]: 24.77% | Pf_120h_%Growth_Rep2 [2, 7]: 20.49% | Pf_72h_%Growth_Rep1 [3, 4]: 47.44% | Pf_72h_%Growth_Rep2 [3, 5]: 32.72%
